Experimental data reported in patent US9518271B2, “Lentiviral-based vector and its use in directed evolution of genomic regions, genes and polynucleotides” (CENTRE NATIONAL DE LA RECHERCHE SCIENTIFIQUE, priority 2009, dated 2016).

Experiments:
[1] = system: Jurkat SLP-76−/−plL2-luc cell clone; assay: Luciferase induction in Jurkat SLP-76-/- pIL2-luc cell clone; assay type: cell-based; conditions: IL2 promoter-driven luciferase; PMA and Calcimycine applied together
Description: (§1) Concerning the screening based on the two luciferase-based readouts (either the one based on transcription driven by the NFAT or by IL2), the inventors have constructed two cell lines which as such are also part of the present invention: • the Jurkat SLP-76−/−plL2-luc cell clone, deposited at the CNCM (Paris, France) under accession number I-4236 on Oct. 30, 2009, in the name of Institut Pasteur, 25-28 rue du Docteur Roux, 75724 Paris Cedex 15, and resulting from the introduction in Jurkat J14 cells (SLP-76−/−) of the firefly luciferase gene under the control of two copies of the IL2 promoter; and • the Jurkat SLP-76−/−NFAT-luc cell clone, deposited at the CNCM under accession number I-4237 on Oct. 30, 2009, in the name of Institut Pasteur, 25-28 rue du Docteur Roux, 75724 Paris Cedex 15, and resulting from the introduction in Jurkat J14 cells (SLP-76−/−) of the firefly luciferase gene preceded by three copies of the NFAT binding site.

[2] = system: Jurkat SLP-76−/−NFAT-luc cell clone; assay: Luciferase induction in Jurkat SLP-76-/- NFAT-luc cell clone; assay type: cell-based; conditions: NFAT binding site-driven luciferase; PMA and Calcimycine applied together
Description: as §1

Messa 10K cells [3] = conditions: Messa 10K cells lacking functional dCK; read-out: Gemcitabine 1050; cited from earlier work
HEK 293T cells [4] = assay: Cell death (MTT assay) of HEK 293T clones carrying dCK variants exposed to AraC; assay type: cell-based, human; conditions: increasing concentrations of AraC, 72 h, FIG. 8
Description: FIG. 8 discloses the cell survival with regard to increasing concentrations of AraC (μM) in presence of the wild type dCK gene (white triangles and solid thick curve) or variants containing point mutations or deletion in the dCK gene (other curves). Each plot represents the average of three independent experiments.
(§2) 80 individual cellular clones at the F17 generation, obtained after transduction of 293T cells at a low multiplicity of infection (and therefore carrying a single variant of the target polynucleotide) have been isolated. The 80 clones have been tested for the kinetic of cell death induced after their exposal to different concentrations of the two anti-cancer drugs, AraC and Gemcitabine, which are cytidine analogues (the natural substrate of dCK) as follows.
Individual clones have been isolated after transduction of HEK 293T cells at low multiplicity of transduction (m.o.i.) and seeding of the transduced cells at limiting dilutions in 96-well plates. […] Seventy-two hours after exposure, cell death has been evaluated for each independent clone and for each drug treatment condition using the MTT assay (Promega) that is a colorimetric test used to quantify cell viability and proliferation. A relative rate of cell death has been calculated for each clone, with respect to the values observed in the plate where no drug was included. […]

HEK 293T cells [5] = assay: Cell death (MTT assay) of HEK 293T clones carrying dCK variants exposed to Gemcitabine; assay type: cell-based, human; conditions: 10 nM Gemcitabine, average of 4 independent experiments
Description: as §2
Individual clones have been isolated after transduction of HEK 293T cells at low multiplicity of transduction (m.o.i.) and seeding of the transduced cells at limiting dilutions in 96-well plates. Individual cell clones growing in the presence of puromycin have then been expanded and seeded in parallel in several replicated 96-well plates. All these plates, with the exception of one to use as control, have been exposed to the anticancer drug at different concentrations, while the control plate has been maintained in the absence of drug. Seventy-two hours after exposure, cell death has been evaluated for each independent clone and for each drug treatment condition using the MTT assay (Promega) that is a colorimetric test used to quantify cell viability and proliferation. A relative rate of cell death has been calculated for each clone, with respect to the values observed in the plate where no drug was included. […]

Messa 10K cells [6] = assay: Sensitivity to Gemcitabine of Messa 10K cells transduced with dCK variants; assay type: cell-based, human
Procedure: FIG. 10 discloses (A) the cell survival with regard to increasing concentrations of Gemcitabine (nM) in untransduced Messa 10K cells (grey solid line), in presence of the wild type dCK gene (large dashed lines) or in presence of dCK G12 variants gene (black solid lines); (B) the survival of Messa 10K cells in presence of 75 nM Gemcitabine in untransduced Messa 10K cells (Messa10K), in Messa 10K cells transduced with a viral vector carrying a wild type dCK gene (M-dCK), in Messa 10K cells transduced with a viral vector carrying the E8 variant dCK gene with mutations G>A 739 et C>A 745 (M-E8) or in Messa 10K cells transduced with a viral vector carrying the G12 variant dCK gene (M-G12), and (C) Western Blot to detect dCK expression on cell lysates, using a polyclonal rabbit antibody; M: untransduced Messa10K cells; M-dCK: Messa10K transduced with a vector carrying the wt dCK gene (4 independent populations); M-G12: Messa10K transduced with a vector carrying the G12 mutant (4 independent populations).
FIG. 11 discloses the cell survival with regard to increasing concentrations of Gemcitabine (nM) in untransduced Messa10K cells (small dashed line), in Messa10K cells transduced with a vector carrying the wt dCK gene (large dashed line; n=5), in Messa10K cells transduced with a vector carrying the sequence of the dCK G12 variant re-inserted in a wild-type backbone (light grey line; n=5), in Messa10K cells transduced with a vector rescued from the 293T-G12-F16 cell line (dark grey line; n=5) and in Messa10K cells transduced with a vector rescued from the 293T-G12-F17 cell line (solid black line; n=5). […]
For these reasons, a strategy for the screening on Messa 10K cells (illustrated in FIG. 9) was set up, aiming at averaging the epigenetic effects possibly influencing the final phenotype by analysing a population of target cells containing the same dCK variant inserted in different sites of the genome. […] The totality of the clones of the same variant were cultivated and analysed for the sensitivity to Gemcitabine in the assay previously described. […]

CNc1ccc2oc(C[C@H]3O[C@@]4(CC[C@H]3C)O[C@H]([C@H](C)C(=O)c3ccc[nH]3)[C@H](C)C[C@H]4C)nc2c1C(=O)O [Calcimycine]
induction of luciferase [1]: strong induction | induction of luciferase [2]: strong induction

Nc1ccn([C@@H]2O[C@H](CO)[C@@H](O)C2(F)F)c(=O)n1 [Gemcitabine]
IC50 (Messa 10K cells [3]): 11 µM

CCCCCCCCCCCCCC(=O)O[C@@H]1[C@@H](C)[C@@]2(O)[C@@H](C=C(CO)C[C@]3(O)C(=O)C(C)=C[C@@H]23)[C@@H]2C(C)(C)[C@]12OC(C)=O [Phorbol Myristate Acetate]
induction of luciferase [1]: strong induction | induction of luciferase [2]: strong induction

G7: dCK variant with a G to A transition at position 521, leading to the G174E variation at the amino acid level [Clone G7]
cell death induced by AraC compared with wt dCK (HEK 293T cells [4]): clear tendency to induce cell death

G12: dCK variant with a G to A transition at position 511 (E171K at the amino acid level) [Clone G12]
ratio of cell survival in G12 cells/dCK cells (HEK 293T cells [5]): 0.50±0.11 | cell death ratio (Messa 10K cells [6]; 75 nM Gemcitabine, transduced Messa 10K cells, FIG. 10B): 90% | sensitivity to Gemcitabine conferred after re-insertion in a wild type lentiviral vector (Messa 10K cells [6]; G12 subcloned from cell line F16, Messa 10K cells, FIG. 11): maintains the ability to confer increased sensitivity to Gemcitabine | cell death by Gemcitabine compared with wild type dCK (Messa 10K cells [6]; transduced Messa 10K cells, four rounds of screening, FIG. 10A/10B): cell death ratio higher than the one induced from a wild type dCK
